From patent publication US4209588A, “Process for producing new antitumor anthracycline antibiotics” (Zaidan Hojin Biseibutsu Kagaku Kenkyu Kai, priority 1976, dated 1980)
Values after ≈ are worked out from the molar mass of the structure shown.

How the values were obtained:
[1] = tested on: Bac. megaterium NRRL B-938; assay: Minimum inhibitory concentration, broth dilution method; conditions: Priestia megaterium, NRRLB938
[2] = tested on: Staph. aureus FDA 209P; assay: as above; conditions: Staphylococcus aureus, FDA209P
[3] = tested on: Mic. flavus; assay: as above; conditions: Micrococcus flavus
[4] = Acute toxicity, single intraperitoneal injection; conditions: mouse, in vivo, ip; single i.p. injection, dd mice; read-out: LD50, intraperitoneal administration
[5] = tested on: Ps. fluoroescens NIHJB-254; assay: Minimum inhibitory concentration, broth dilution method
[6] = tested on: Mycobact. smegmatis ATCC 607; assay: as above
[7] = tested on: Can. albicans IAM 4905; assay: as above; conditions: Candida albicans, IAM4905
[8] = tested on: Bac. cereus ATCC 9634; assay: as above; conditions: Bacillus cereus, ATCC9634
[9] = tested on: Bac. subtilis ATCC 6633; assay: as above; conditions: Bacillus subtilis, ATCC6633
[10] = tested on: solid and ascitic-type mammalian malignant tumors; assay: Inhibitory action against solid and ascitic-type mammalian malignant tumors; type: in vivo, mammals
[11] = tested on: P388 leukemia; assay: Inhibition of growth of P388 leukemia in mice; type: in vivo
[12] = tested on: Corv. bovis 1810; assay: Minimum inhibitory concentration, broth dilution method
[13] = tested on: Pr. morganii; assay: as above; conditions: Morganella morganii
[14] = tested on: L1210 cells; assay: Growth inhibition of cultured L1210 cells; conditions: Mus musculus, L1210, read-out: % Inhibition, Growth (on Day 2)
[15] = tested on: Staph. aureus Smith; assay: Minimum inhibitory concentration, broth dilution method; conditions: Staphylococcus aureus
[16] = tested on: Sar. lutea ATCC 9341; assay: as above; conditions: Micrococcus luteus, ATCC9341
[17] = tested on: Can. tropicalis IAM 4942; assay: as above; conditions: Candida tropicalis, IAM4942
[18] = solid and ascitic-type mammalian tumors, in words
[19] = P388 leukemia in mice, in words

SMILES	MIC [1]	MIC [2]	MIC [3]	LD50 [4]	MIC [5]	MIC [6]	MIC [7]	MIC [8]	MIC [9]	inhibitory action against malignant tumors [10, 18]	inhibiting the growth of P388 leukemia [11, 19]	MIC [12]	MIC [13]	inhibition at 0.1 µg/mL [14]	MIC [15]	MIC [16]	MIC [17]	inhibitory action against malignant tumors ([10]; in vivo)	inhibiting the growth of P388 leukemia ([11]; mouse, in vivo)
CC[C@@]1(O)C[C@H](O[C@H]2C[C@H](N(C)C)[C@H](O[C@H]3C[C@H](O)[C@H](O[C@H]4CC[C@H](O)[C@H](C)O4)[C@H](C)O3)[C@H](C)O2)c2c(cc3c(c2O)C(=O)c2c(O)cccc2C3=O)[C@H]1C(=O)OC [MA 144-N1]	3.1 µg/mL (≈ 3.81 µM)	6.25 µg/mL (≈ 7.68 µM)	0.4 µg/mL (≈ 0.491 µM)	32.5 mg/kg	> 100 µg/mL	> 100 µg/mL	> 100 µg/mL	0.78 µg/mL (≈ 0.958 µM)	3.1 µg/mL (≈ 3.81 µM)	marked inhibitory action	effective in inhibiting the growth of malignant tumors	0.78 µg/mL (≈ 0.958 µM)	> 100 µg/mL	79.2%	0.78 µg/mL (≈ 0.958 µM)	0.78 µg/mL (≈ 0.958 µM)	> 100 µg/mL		
CC[C@@]1(O)C[C@H](O[C@H]2C[C@H](N(C)C)[C@H](O[C@H]3C[C@H](O)[C@H](O[C@H]4CCC(=O)[C@H](C)O4)[C@H](C)O3)[C@H](C)O2)c2c(cc3c(c2O)C(=O)c2c(O)cccc2C3=O)[C@H]1C(=O)OC [Aclacinomycin, reference compound]														89.7%					
CC[C@@]1(O)C[C@H](O[C@H]2C[C@H](N(C)C)[C@H](O[C@H]3C[C@H](O)[C@H](O)[C@H](C)O3)[C@H](C)O2)c2c(cc3c(c2O)C(=O)c2c(O)cccc2C3=O)[C@H]1C(=O)OC [MA 144-S1, 2-deoxy-L-fucosyl-L-rhodosaminyl-aklavinone]	3.1 µg/mL (≈ 4.43 µM)	6.25 µg/mL (≈ 8.93 µM)	1.56 µg/mL (≈ 2.23 µM)	24.4 mg/kg	> 100 µg/mL	> 100 µg/mL	> 100 µg/mL	1.56 µg/mL (≈ 2.23 µM)	3.1 µg/mL (≈ 4.43 µM)	marked inhibitory action	effective in inhibiting the growth of malignant tumors	0.78 µg/mL (≈ 1.11 µM)	> 100 µg/mL	86%	3.1 µg/mL (≈ 4.43 µM)	1.56 µg/mL (≈ 2.23 µM)	> 100 µg/mL		
CC[C@@]1(O)C[C@H](O[C@H]2C[C@H](N(C)C)[C@H](O[C@H]3C[C@H](O)[C@H](O[C@H]4C[C@H](O)[C@H](O)[C@H](C)O4)[C@H](C)O3)[C@H](C)O2)c2c(cc3c(c2O)C(=O)c2c(O)cccc2C3=O)[C@H]1C(=O)OC [MA 144-U1]	3.1 µg/mL (≈ 3.74 µM)	6.25 µg/mL (≈ 7.53 µM)	1.56 µg/mL (≈ 1.88 µM)	30.2 mg/kg	> 100 µg/mL	> 100 µg/mL	> 100 µg/mL	1.56 µg/mL (≈ 1.88 µM)	3.1 µg/mL (≈ 3.74 µM)	marked inhibitory action	effective in inhibiting the growth of malignant tumors	6.25 µg/mL (≈ 7.53 µM)	> 100 µg/mL	78.5%	3.1 µg/mL (≈ 3.74 µM)	1.56 µg/mL (≈ 1.88 µM)	> 100 µg/mL		
CC[C@@]1(O)C[C@H](O[C@H]2C[C@H](N(C)C)[C@H](O[C@H]3C[C@H](O)[C@H](OC4CCC(=O)C(C)O4)[C@H](C)O3)[C@H](C)O2)c2c(cc3c(c2O)C(=O)c2c(O)cccc2C3=O)[C@H]1C(=O)OC (stereo partly drawn) [D-cinerulosyl-2-deoxy-L-fucosyl-L-rhodosaminyl-alkavinone]	6.25 µg/mL (≈ 7.7 µM)	6.25 µg/mL (≈ 7.7 µM)	0.2 µg/mL (≈ 0.246 µM)	28.5 mg/kg	100 µg/mL (≈ 123 µM)	3.12 µg/mL (≈ 3.84 µM)	100 µg/mL (≈ 123 µM)	1.56 µg/mL (≈ 1.92 µM)	3.12 µg/mL (≈ 3.84 µM)			1.56 µg/mL (≈ 1.92 µM)	> 100 µg/mL	80.7%	1.56 µg/mL (≈ 1.92 µM)	0.78 µg/mL (≈ 0.961 µM)	100 µg/mL (≈ 123 µM)	marked inhibitory action	effective in inhibiting the growth of malignant tumors
CC[C@@]1(O)C[C@H](O[C@H]2C[C@H](N(C)C)[C@H](O[C@H]3C[C@H](O)[C@H](O[C@H]4C[C@H](O)[C@H](O)[C@H](C)O4)[C@H](C)O3)[C@H](C)O2)c2c(cc3c(c2O)C(=O)c2c(O)ccc(O)c2C3=O)[C@H]1C(=O)OC [MA 144-U2]	1.56 µg/mL (≈ 1.84 µM)	3.1 µg/mL (≈ 3.66 µM)	0.78 µg/mL (≈ 0.922 µM)	14.5 mg/kg	> 100 µg/mL	> 100 µg/mL	> 100 µg/mL	1.56 µg/mL (≈ 1.84 µM)	3.1 µg/mL (≈ 3.66 µM)			6.25 µg/mL (≈ 7.39 µM)	> 100 µg/mL	80.5%	0.78 µg/mL (≈ 0.922 µM)	1.56 µg/mL (≈ 1.84 µM)	> 100 µg/mL		effective in inhibiting the growth of malignant tumors
CC[C@@]1(O)C[C@H](O[C@H]2C[C@H](N(C)C)[C@H](O[C@H]3C[C@H](O)[C@H](O)[C@H](C)O3)[C@H](C)O2)c2c(cc3c(c2O)C(=O)c2c(O)ccc(O)c2C3=O)[C@H]1C(=O)OC [MA 144-S2]	3.1 µg/mL (≈ 4.33 µM)	6.25 µg/mL (≈ 8.73 µM)	0.78 µg/mL (≈ 1.09 µM)	12.5 mg/kg	> 100 µg/mL	> 100 µg/mL	> 100 µg/mL	0.78 µg/mL (≈ 1.09 µM)	3.1 µg/mL (≈ 4.33 µM)		effective in inhibiting the growth of malignant tumors	0.78 µg/mL (≈ 1.09 µM)	> 100 µg/mL	88.1%	0.78 µg/mL (≈ 1.09 µM)	1.56 µg/mL (≈ 2.18 µM)	> 100 µg/mL		
CC[C@@]1(O)C[C@H](O[C@H]2C[C@H](N(C)C)[C@H](O[C@H]3C[C@H](O)[C@H](O[C@H]4C=CC(=O)[C@H](C)O4)[C@H](C)O3)[C@H](C)O2)c2c(cc3c(c2O)C(=O)c2c(O)cccc2C3=O)[C@H]1C(=O)OC [MA 144-Y]	0.2 µg/mL (≈ 0.247 µM)	0.4 µg/mL (≈ 0.494 µM)	0.1 µg/mL (≈ 0.123 µM)	40 to 50 mg/kg	> 100 µg/mL	3.1 µg/mL (≈ 3.83 µM)	> 100 µg/mL	0.1 µg/mL (≈ 0.123 µM)	0.2 µg/mL (≈ 0.247 µM)	marked inhibitory action	effective in inhibiting the growth of malignant tumors	0.2 µg/mL (≈ 0.247 µM)	> 100 µg/mL	90.2%	0.2 µg/mL (≈ 0.247 µM)	0.2 µg/mL (≈ 0.247 µM)	> 100 µg/mL		
CC[C@@]1(O)C[C@H](O[C@H]2C[C@H](NC)[C@H](O[C@H]3C[C@H](O)[C@H](O[C@H]4CCC(=O)[C@H](C)O4)[C@H](C)O3)[C@H](C)O2)c2c(cc3c(c2O)C(=O)c2c(O)cccc2C3=O)[C@H]1C(=O)OC [MA 144-L]	6.25 µg/mL (≈ 7.83 µM)	6.25 µg/mL (≈ 7.83 µM)	0.2 µg/mL (≈ 0.251 µM)	45.5 mg/kg	100 µg/mL (≈ 125 µM)	3.1 µg/mL (≈ 3.89 µM)	100 µg/mL (≈ 125 µM)	1.56 µg/mL (≈ 1.96 µM)	3.1 µg/mL (≈ 3.89 µM)	marked inhibitory action	effective in inhibiting the growth of malignant tumors	1.56 µg/mL (≈ 1.96 µM)	> 100 µg/mL	27.4%	1.56 µg/mL (≈ 1.96 µM)	0.78 µg/mL (≈ 0.978 µM)	100 µg/mL (≈ 125 µM)		
CC[C@@]1(O)C[C@H](O[C@H]2C[C@H](N(C)C)[C@H](O[C@H]3C[C@H](O)[C@H](OC4CCC(=O)C(C)O4)[C@H](C)O3)[C@H](C)O2)c2c(cc3c(c2O)C(=O)c2c(O)ccc(O)c2C3=O)[C@H]1C(=O)OC (stereo partly drawn) [D-cinerulosyl-2-deoxy-L-fucosyl-L-rhodosaminyl-ε-pyrromycinone]	6.25 µg/mL (≈ 7.55 µM)	3.12 µg/mL (≈ 3.77 µM)	0.2 µg/mL (≈ 0.242 µM)	17 mg/kg	100 µg/mL (≈ 121 µM)	3.12 µg/mL (≈ 3.77 µM)	> 100 µg/mL	0.78 µg/mL (≈ 0.942 µM)	1.56 µg/mL (≈ 1.88 µM)			0.78 µg/mL (≈ 0.942 µM)	> 100 µg/mL	82.1%	1.56 µg/mL (≈ 1.88 µM)	0.78 µg/mL (≈ 0.942 µM)	> 100 µg/mL	marked inhibitory action	effective in inhibiting the growth of malignant tumors
